For assay [1], the system named is EBC-1 cells. The assay is described as follows: Inhibition of c-Met-mediated EBC-1 cell proliferation (SRB staining). Type of assay: cell-based. Particulars: Homo sapiens, 72 hours treatment. As to the method: The inhibitory effect of the compounds on the growth of non-small cell cancer EBC-1 cell (a cell line in which Met is continually activated due to the amplification of MET gene, and is a Met-dependent tumor cell line) was measured by sulforhodamine B (SRB) staining assay. A certain amount of EBC-1 cells in their logarithmic growth phase were seeded in 96-well plates at 90 μL per well and cultured overnight, then 10 μL of different concentrations of compounds or solvent control were added thereto, three wells for each concentration. After treated by the compound for 72 hours, the adherent cells were removed of culture medium and fixed with 10% (w/v) trichloroacetic acid (100 μL/well) at 4° C. for 1 hr followed by rinsing with distilled water five times. After drying at room temperature, 100 μL of SRB solution (dissolved in 1% glacial acetic acid at 4 mg/mL) was added to each well to incubate and stain the cells for 15 min at room temperature, then unbound SRB was washed off with 1% glacial acetic acid for five times. After drying at room temperature, 100 μL of 10 mM Tris solution was added to each well. The optical density (OD value) at 515 nm was read on a VERSMax microplate reader. […] The experiment was repeated twice. The IC50 data was calculated as a range based on the test results of concentrations set in the initial screening test.

Assay [2] has as its target T1, c-Met kinase (Homo sapiens, UniProt P08581).
T1 construct: c-Met kinase domain recombinant protein diluted with 49 μL of the reaction buffer was added
The assay is described as follows: Inhibitory effect on c-Met kinase activity at molecular level (ELISA).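 Also: recombinant c-Met kinase domain with 5 µM ATP, 1 h at 37 °C, substrate phosphorylation detected by anti-phosphotyrosine PY99 ELISA at 490 nm versus DMSO negative control, ATP-free wells as blank.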 Type of assay: biochemical.

Structures are written as SMILES.

T1 sequence (P08581 1078-1345 limits assumed): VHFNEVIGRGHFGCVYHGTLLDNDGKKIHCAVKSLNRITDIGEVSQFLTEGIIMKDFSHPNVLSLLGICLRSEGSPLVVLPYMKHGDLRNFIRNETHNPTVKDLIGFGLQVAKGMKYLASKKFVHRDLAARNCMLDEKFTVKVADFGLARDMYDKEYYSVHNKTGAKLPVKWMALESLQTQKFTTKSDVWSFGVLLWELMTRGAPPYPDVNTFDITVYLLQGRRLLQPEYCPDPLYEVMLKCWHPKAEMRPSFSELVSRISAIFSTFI

As a reminder, the IC50 is the concentration at which inhibition is half-maximal. A lower IC50 goes with higher potency. For `CC(C)n1cc(-c2cc3nccc(Oc4ccc(NC(=O)C5(C(=O)Nc6ccc(F)cc6)CC5)cc4F)c3cn2)cn1` [Compound 41S, N-(3-fluoro-4-((7-(1-isopropyl-1H-pyrazol-4-yl)-1,6-naphthyridin-4-yl)oxy)phenyl)-N-(4-fluorophenyl) cyclopropyl-1,1-dicarboxamide], the IC50 in assay [1] and in assay [2] was 1 to 10 nM throughout.

With `O=C(Nc1ccc(F)cc1)C1(C(=O)Nc2ccc(Oc3ccnc4cc(-c5cnn(C6CCNCC6)c5)ncc34)c(F)c2)CC1` [Compound 42S, N-(3-fluoro-4-((7-(1-(piperidin-4-yl)-1H-pyrazol-4-yl)-1,6-naphthyridin-4-yl)oxy)phenyl)-N-(4-fluorophenyl) cyclopropyl-1,1-dicarboxamide], the IC50 in assay [1] and in assay [2] was 1 to 10 nM in each case.

Take `CC(C)N1CCC(n2cc(-c3cc4nccc(Oc5ccc(NC(=O)C6(C(=O)Nc7ccc(F)cc7)CC6)cc5F)c4cn3)cn2)CC1` [Compound 43S, N-(3-fluoro-4-((7-(1-(1-isopropylpiperidin-4-yl)-1H-pyrazol-4-yl)-1,6-naphthyridin-4-yl)oxy)phenyl)-N-(4-fluorophenyl)cyclopropyl-1,1-dicarboxamide]: the half-maximal inhibitory concentration (IC50) in assay [1] fell in the range of 100 to 1000 nM; in assay [2], 1 to 10 nM.

`O=C(Nc1ccc(F)cc1)C1(C(=O)Nc2ccc(Oc3ccnc4cc(Cn5ccnc5)ncc34)c(F)c2)CC1` [Compound 44S, N-(4-((7-((1H-imidazol-1-yl)methyl)-1,6-naphthyridin-4-yl)oxy)-3-fluorophenyl)-N-(4-fluorophenyl)cyclopropyl-1,1-dicarboxamide]: the IC50 was 100 to 1000 nM in assay [1] and 10 to 100 nM in assay [2].

Take `Cc1noc(C)c1-c1cc2nccc(Oc3ccc(NC(=O)C4(C(=O)Nc5ccc(F)cc5)CC4)cc3F)c2cn1` [Compound 45S, N-(4-((7-(3,5-dimethylisoxazol-4-yl)-1,6-naphthyridin-4-yl)oxy)-3-fluorophenyl)-N-(4-fluorophenyl) cyclopropyl-1,1-dicarboxamide]: the IC50 in assay [1] is 1000 to 10000 nM; in assay [2], 100 to 1000 nM.

Consider `O=C(Nc1ccc(F)cc1)C1(C(=O)Nc2ccc(Oc3ccnc4cc(-c5ccncc5)ncc34)c(F)c2)CC1` [Compound 46S, N-(3-fluoro-4-((7-(pyridin-4-yl)-1,6-naphthyridin-4-yl)oxy)phenyl)-N-(4-fluorophenyl)cyclopropyl-1,1-dicarboxamide], for which the IC50 lay in the range of 100 to 1000 nM in assay [1] and 1 to 10 nM in assay [2].

Consider `O=C(Nc1ccc(F)cc1)C1(C(=O)Nc2ccc(Oc3ccnc4cc(-c5cncnc5)ncc34)c(F)c2)CC1` [Compound 47S, N-(3-fluoro-4-((7-(pyrimidin-5-yl)-1,6-naphthyridin-4-yl)oxy)phenyl)-N-(4-fluorophenyl)cyclopropyl-1,1-dicarboxamide], for which the IC50 was 10 to 100 nM in assay [1] and 1 to 10 nM in assay [2].

Regarding `O=C(Nc1ccc(F)cc1)C1(C(=O)Nc2ccc(Oc3ccnc4cc(-c5ccc(F)c(F)c5)ncc34)c(F)c2)CC1` [Compound 49S, N-(3-fluoro-4-((7-(3,4-difluorophenyl)-1,6-naphthyridin-4-yl)oxy)phenyl)-N-(4-fluorophenyl)cyclopropyl-1,1-dicarboxamide], the figures for the IC50 in assay [1] and in assay [2] were 10 to 100 nM and 1 to 10 nM, respectively.

With `Cn1cc(-c2cc3nccc(Oc4ccc(NC(=O)c5c[nH]cc(-c6ccc(F)cc6)c5=O)cc4F)c3cn2)cn1` [Compound 54S, N-(3-fluoro-4-((7-(1-methyl-1H-pyrazol-4-yl)-1,6-naphthyridin-4-yl)oxy)phenyl)-5-(4-fluorophenyl)-4-oxo-1,4-dihydropyridine-3-carboxamide], the half-maximal inhibitory concentration (IC50) in assay [1] lay in the range of 10 to 100 nM; in assay [2], 1 to 10 nM.

As for `O=C(Nc1ccc(F)cc1)C1(C(=O)Nc2ccc(Oc3ccnc4nc(Cl)cnc34)c(F)c2)CC1` [Compound 55S, N-(4-((3-chloropyrido[2,3-b]pyrazin-8-yl)oxy)-3-fluorophenyl)-N-(4-fluorophenyl)cyclopropyl-1,1-dicarboxamide], the figures for the IC50 in assay [1] and in assay [2] were 1000 to 10000 nM and 10 to 100 nM, respectively.

For the compound `O=C(Nc1ccc(F)cc1)C1(C(=O)Nc2ccc(Oc3ccnc4ncc(Cl)nc34)c(F)c2)CC1` [Compound 56S], the IC50 in assay [1] was 1000 to 10000 nM; in assay [2], 100 to 1000 nM.

Turning to `O=C(Nc1ccc(F)cc1)C1(C(=O)Nc2ccc(Oc3ccnc4nc(N5CCOCC5)cnc34)c(F)c2)CC1` [Compound 57S], the IC50 lay in the range of 1000 to 10000 nM in assay [1] and 10 to 100 nM in assay [2].

As to `O=C(Nc1ccc(F)cc1)C1(C(=O)Nc2ccc(Oc3ccnc4ncc(N5CCOCC5)nc34)c(F)c2)CC1` [Compound 58S], the IC50 in assay [1] lay in the range of 1000 to 10000 nM; in assay [2], 100 to 1000 nM.

Turning to `CN1CCN(c2cnc3c(Oc4ccc(NC(=O)C5(C(=O)Nc6ccc(F)cc6)CC5)cc4F)ccnc3n2)CC1` [Compound 59S, N-(3-fluoro-4-((3-(4-methylpiperazin-1-yl)pyrido[2,3-b]pyrazin-8-yl)oxy)phenyl)-N-(4-fluorophenyl)cyclopropyl-1,1-dicarboxamide], the IC50 in assay [1] lay in the range of 100 to 1000 nM; in assay [2] it was 1 to 10 nM.

Consider `O=C(Nc1ccc(F)cc1)C1(C(=O)Nc2ccc(Oc3ccnc4nc(OCCN5CCOCC5)cnc34)c(F)c2)CC1` [Compound 60S, N-(3-fluoro-4-((3-(2-morpholinoethoxy)pyrido[2,3-b]pyrazin-8-yl)oxy)phenyl)-N-(4-fluorophenyl)cyclopropyl-1,1-dicarboxamide], for which the figures for the IC50 in assay [1] and in assay [2] were 1000 to 10000 nM and 10 to 100 nM, respectively.

On to `O=C(Nc1ccc(F)cc1)C1(C(=O)Nc2ccc(Oc3ccnc4nc(NCCCN5CCOCC5)cnc34)c(F)c2)CC1` [Compound 62S, N-(3-fluoro-4-((3-((3-morpholinopropyl)amino)pyrido[2,3-b]pyrazin-8-yl)oxy)phenyl)-N-(4-fluorophenyl) cyclopropyl-1,1-dicarboxamide], for which the IC50 lay in the range of 1000 to 10000 nM in assay [1] and 10 to 100 nM in assay [2].

For `O=C(Nc1ccc(F)cc1)C1(C(=O)Nc2ccc(Oc3ccnc4ncc(NCCCN5CCOCC5)nc34)c(F)c2)CC1` [Compound 63S, N-(3-fluoro-4-((2-((3-morpholinopropyl)amino)pyrido[2,3-b]pyrazin-8-yl)oxy)phenyl)-N-(4-fluorophenyl) cyclopropyl-1,1-dicarboxamide], the figures for the IC50 in assay [1] and in assay [2] were 1000 to 10000 nM and 1 to 10 nM, respectively.

Regarding `O=C(Nc1ccc(F)cc1)C1(C(=O)Nc2ccc(Oc3ccnc4nc(N5CCNCC5)cnc34)c(F)c2)CC1` [Compound 64S, N-(4-((3-piperazinyl-pyrido[2,3-b]pyrazin-8-yl)oxy)-3-fluorophenyl)-N-(4-fluorophenyl)cyclopropyl-1,1-dicarboxamide], the IC50 in assay [1] lay within 1000 to 10000 nM; in assay [2] it was 1 to 10 nM.

For the compound `O=C(Nc1ccc(F)cc1)C1(C(=O)Nc2ccc(Oc3ccnc4ncc(N5CCNCC5)nc34)c(F)c2)CC1` [Compound 65S, N-(4-((2-piperazinyl-pyrido[2,3-b]pyrazin-8-yl)oxy)-3-fluorophenyl)-N-(4-fluorophenyl)cyclopropyl-1,1-dicarboxamide], the IC50 in assay [1] and in assay [2] was 1000 to 10000 nM each time.

As for `O=C(Nc1ccc(F)cc1)C1(C(=O)Nc2ccc(Oc3ccnc4ncc(OCCN5CCOCC5)nc34)c(F)c2)CC1` [Compound 67S, N-(3-fluoro-4-((2-(2-morpholinoethoxy)pyrido[2,3-b]pyrazin-8-yl)oxy)phenyl)-N-(4-fluorophenyl)cyclopropyl-1,1-dicarboxamide], the IC50 in assay [1] and in assay [2] was 1000 to 10000 nM throughout.

Take `O=C(Nc1ccc(F)cc1)C1(C(=O)Nc2ccc(Oc3ccnc4ncc(OCCCN5CCOCC5)nc34)c(F)c2)CC1` [Compound 68S, N-(3-fluoro-4-((2-(3-morpholinopropoxy)pyrido[2,3-b]pyrazin-8-yl)oxy)phenyl)-N-(4-fluorophenyl)cyclopropyl-1,1-dicarboxamide]: the IC50 in assay [1] and in assay [2] was 1000 to 10000 nM each time.

The values above are taken from patent publication US10710996B2, “Pyrido-azaheterecydic compound and preparation method and use thereof” (SHANGHAI INSTITUTE OF MATERIA MEDICA, CHINESE ACADEMY OF …, priority 2015, dated 2020).
